Read-outs that look alike come from different tables or passages of the source.
How the values were obtained:
[1] = for Leaching of EDDS, specimen with end sealing / Leaching of EDDS, specimen without end sealing: after one week, mean ± SD
Description: The aim of this example is to show the leaching of EDDS in sea water, as well as the effect of the pH in sea water on the leaching.
Wood specimens were produced by the Danish Technological Institute, and made of sap wood of Pinus sylvestris in the dimension: 15×25×50 mm^3.
The impregnating solution used was an aqueous solution of 5% Octaquest® E30 (Innospec Limited, contains a 30% solution of trisodium-EDDS in water), 5% sodium carbonate and 5% ethanol. pH was adjusted to 4.5 with hydrochloric acid.
Three different sea water solutions were prepared using artificial sea water salt mix (Tropic Marin® Sea Salt) at half the recommended concentration (15 g/L corresponding to a specific gravity of 1010 kg/m^3), normal concentration (30 g/L corresponding to a specific gravity of 1019 kg/m^3) and half concentration with pH adjusted to 6. Specific gravity of sea water in the oceans range between 1020 and 1030 kg/m^3. For each solution six containers were prepared each containing five specimens. Half of the specimens in each solution were end sealed at both ends using Conclad 300 2-K membrane (product no. 5305A, Condor Kemi A/S, Denmark). The end seal was applied to evaluate the radial leaching of the impregnating agent in order to simulate the surfaces exposed in harbour piers.
The specimens were placed in the containers and 500 ml of sea water solution was added to each container.
After one week the water was collected and analysed for EDDS content by HPLC-UV; detection at 254 nm. The method used involved a reverse phase column and online complexing of EDDS with Cu(II)-ions. Quantifications were made from external standards (reference material used was “−30% Na3EDDS in water” from Fluka).

[2] = tested on: marine woodborers; test: Protective effectiveness against marine borers, EN 275 harbour exposure; type: in vivo, shipworm; details: 6 months; compared to control subjects
Description: The guidelines and recommendations in EN 275: 1992—Wood preservatives—Determination of the protective effectiveness against marine borers were followed unless otherwise stated.
Wood specimens were made of sapwood of Pinus sylvestris in the dimensions: 200×75×25 mm3, with a hole ø25 mm in the centre. The specimens were produced by the Danish Technological Institute.
The biocide-impregnating solution was prepared in different compositions according to Table 4. pH was adjusted with hydrochloric acid, and 10 specimens were used for each composition of biocide-impregnating solution and each harbour exposure site.
The specimens were attached to test racks and placed in two different harbours in Denmark: Skagen (northern part of Jutland) and Rudkøbing (Langeland) on 26 and 24 Apr. 2007, respectively (FIG. 1). The specimens were collected again ˜6 months later on 23 and 25 Oct. 2007, respectively.
The attack by marine borers was evaluated by cutting up the specimen in five pieces and recording the number of borers present and the percentage of the area which they had attacked.

Structure (SMILES): O=C(O)C[C@H](NCCN[C@@H](CC(=O)O)C(=O)O)C(=O)O [EDDS, (S,S)-ethylenediamine-disuccinate]
- Leaching ([1]; all sea water solutions, in seven days): about 30%
- Leaching from end sealed specimens compared with specimens without end sealing ([1]; all three types of sea water): significantly lower
- Leaching of EDDS, specimen with end sealing ([1]; sea water normal conc.): 26.48 ± 0.92%
- Leaching of EDDS, specimen without end sealing ([1]; sea water normal conc.): 33.56 ± 0.62%
- Leaching of EDDS, specimen with end sealing ([1]; sea water ½ conc. pH 6): 30.07 ± 0.70%
- Leaching of EDDS, specimen without end sealing ([1]; sea water ½ conc. pH 6): 36.14 ± 0.89%
- Leaching of EDDS, specimen with end sealing ([1]; sea water ½ conc.): 32.08 ± 1.01%
- Leaching of EDDS, specimen without end sealing ([1]; sea water ½ conc.): 34.08 ± 0.59%
- Effectiveness against attack of shipworm [2]: effective

Reference: patent US20150119442A1, “Biocide agents against marine woodborers” (Teredo Marine Protection ApS, priority 2008, published 2015)
